The source of these data is article PMC7034088, “Effect of verapamil on the pharmacokinetics of hydroxycamptothecin and its potential mechanism” (Pharmaceutical Biology, 2020).

The nature of series [1]: In vivo pharmacokinetic study of oral HCPT in rats with or without verapamil pre-treatment. As to conditions: male, Sprague-Dawley, rat, plasma, 50 mg/kg, HCPT 50 mg/kg intragastric/oral, n = 6, Mean ± S.D.; for CL/F: read-out: CLz/F (oral clearance) (converted). The method, then: Male Sprague–Dawley rats weighing 230–250 g were provided by Shanghai SLAC Laboratory Animal Co., Ltd (Shanghai, China). Rats were bred in a breeding room at 25 °C with 60 ± 5% humidity and a 12 h dark-light cycle. Tap water and normal chow were given ad libitum. All of the experimental animals were housed under the above conditions, for a 3-day acclimation period and fasted overnight before the experiments. All experimental procedures and protocols were reviewed and approved by the Animal Care and Use Committee of China–Japan Union Hospital of Jilin University and were in accordance with the National Institutes of Health guidelines regarding the principles of animal care.
Rats were divided into two groups of six animals each, with or without pre-treatment of verapamil. The pre-treatment of verapamil on the test group was at a dose of 10 mg/kg/day (dissolved directly in normal saline containing 0.5% methylcellulose at a concentration of 2 mg/mL) for 7 days. Next, 50 mg/kg HCPT was administrated orally. Blood samples (200 μL) were collected into heparinized tubes via the oculi choroidal vein at 0.083, 0.33, 0.5, 1, 2, 4, 6, 8, 10, 12, 24, and 36 h after the oral administration of […]. The blood samples were centrifuged at 3500 rpm for 5 min. The plasma samples that were obtained were stored at −40 °C until analysis.
To obtain 100 μL aliquot of plasma sample, 20 μL methanol and 180 μL internal standard methanol solution (2 ng/mL) were added and vortexed for 60 s to mix in a 1.5 mL polypropylene tube, and were centrifuged at 12,000 rpm for 10 min. The supernatant was removed into an injection vial, and a 3 μL aliquot was injected into the LC-MS/MS system for analysis.
The determination of HCPT was performed on an Agilent 1290 series liquid chromatography system and an Agilent 6470 triple-quadruple mass spectrometer (Palo Alto, CA). The HPLC/MS conditions and sample preparation were basically according to a validated HPLC method described before (Zhang et al. [2019]). The chromatographic analysis of HCPT was performed on a Waters X-Bridge C18 column (3.0 × 100 mm, i.d.; 3.5 μm, Waters Corporation, Milford, MA ) at room temperature (25 °C). The mobile phase was water (containing 0.1% formic acid) and acetonitrile (30:70, v: v) with isocratic elution at a flow rate of 0.2 mL/min, and the analysis time was 4 min.
The mass scan mode was positive MRM mode. The precursor ion and product ion are m/z 365.20→321.10 for HCPT and m/z 349.25→305.15 for IS. The collision energy for HCPT and IS were 30 and 20 eV, respectively. The MS/MS conditions were optimized as follows: fragmentor, 110 V; capillary voltage, 3.5 kV; Nozzle voltage, 500 V; nebulizer gas pressure (N2), 40 psig; drying gas flow (N2), 10 L/min; gas temperature, 350 °C; sheath gas temperature, 400 °C; sheath gas flow, 11 L/min.
Pharmacokinetic parameters, including the area under the plasma concentration–time curve (AUC), maximal plasma concentration (Cmax), the time for the maximal plasma concentration (Tmax), and the mean residence time (MRT), were calculated using the DAS 3.0 pharmacokinetic software (Chinese Pharmacological Association, Anhui, China).

Series [2] can be described thus: Metabolic stability of HCPT in rat liver microsomes with or without verapamil. The format is in vitro ADME. As to conditions: for microsomal CLint at 1 µM: read-out: intrinsic clearance rate. The method, then:
The metabolic stability of HCPT was investigated in rat liver microsomes with or without verapamil. The detailed methods were similar to those reported before (Wang et al. [2017]; Yan et al. [2017]). Briefly, 30 μL rat liver microsome (20 mg/mL), 12 μL HCPT solution (100 μM) and 1113 μL PBS buffer (0.1 M, pH 7.4) were added to the centrifuge tubes on ice. After a 5-min preincubation at 37 °C, the NADPH-generating system (45 μL) was added into the microsomal suspension to initiate the reaction. Meanwhile, the effects of verapamil or ketoconazole (a positive CYP3A4 inhibitor) on the metabolic stability of HCPT were investigated by adding 10 μM of verapamil or ketoconazole (12 μL, final concentration of 0.1 μM) to rat liver microsomes and preincubating them for 30 min at 37 °C, followed by the addition of NADPH-generating system. Aliquots of 100 μL were collected from the reaction volumes at 0.083, 0.167, 0.33, 0.5, 1, 2, 4, 8, 12, 24, and 36 h after the addition of HCPT, and 200 μL ice-cold acetonitrile containing esculin was added to terminate the reaction. All the experiments were performed in triplicate. The subsequent sample preparation method was the same as the plasma sample preparation method, and the concentration of HCPT was determined by LC-MS.
The in vitro half-life (t1/2) was obtained using the equation: t1/2 = 0.693/k; V (μL/mg) = volume of incubation (μL)/protein in the incubation (mg); intrinsic clearance (Clint) (μL/min/mg protein) = V × 0.693/t1/2.
In general terms: Liver microsomes are vesicles of endoplasmic reticulum, rich in cytochrome P450 enzymes.

Series [3] in a line: Bidirectional transport of HCPT in the Caco-2 cell transwell model with or without verapamil. To be noted: human; for efflux ratio at 2 µM: Caco-2, pH 7.4, efflux ratio, Caco-2 transwell, HCPT 2 μM. The method, then: (§1) The Caco-2 cell line was obtained from the American Type Culture Collection (Manassas, VA), and it was performed according to the previous study (Liu et al. [2019]). The Caco-2 cells were cultured in DMEM high glucose medium containing 15% FBS, 1% NEAA, and 100 U/mL penicillin and streptomycin. The cells were cultured at 37 °C with 5% CO2. For transport studies, the cells at passage 40 were seeded on transwell polycarbonate insert filters (1.12 cm^2 surface, 0.4 μm pore size, 12 mm diameter; Corning Co-star Corporation, Corning, MA) in 12-well plates at a density of 1 × 10^5 cells/cm^2. Cells were allowed to grow for 21 days. For the first seven days, the medium was replaced every two days, and then daily. The transepithelial electrical resistance (TEER) of the monolayer cells was measured using Millicell ERS-2 (Millipore Corporation, Billerica, MA), and TEER exceeding 400 Ω·cm^2 was used for the flux experiment. […] The alkaline phosphatase activity was validated using an Alkaline Phosphatase Assay Kit. The qualified monolayers were used for transport studies.
(§2) The Caco-2 cell transwell model was employed to investigate the transport of HCPT in the presence or absence of verapamil. The cell monolayers were rinsed twice with warm (37 °C) Hanks’ balanced salt solution (HBSS) before the transport experiments. After that, the cells were incubated at 37 °C for 20 min. HCPT was added to either apical or basolateral side to incubate with the cell monolayers in fresh incubation medium for the indicated times at 37 °C, after preincubation. The volume of incubation medium on the apical and basolateral sides was 0.5 mL and 1.5 mL, respectively, and a 100 μL aliquot of the incubation solution was withdrawn at the indicated time points from the receiver compartment and replaced with the same volume of fresh pre-warmed HBSS buffer. The permeability of HCPT (2 μM) in all of the above conditions for both directions, i.e., from the apical (AP) side to the basolateral (BL) side and from the BL side to the AP side, was measured after incubation for 30, 60, 90, and 120 min at 37 °C. In addition, the efflux activity of P-gp was validated using a typical P-gp substrate digoxin (25 μM).
(§3) The apparent permeability coefficient (Papp) was calculated using the equation of Artursson and Karlsson: Papp=(ΔQ/Δt)×[1/(A×C0)] where Papp is the apparent permeability coefficient (cm/s), ΔQ/Δt (μmol/s) is the rate at which the compound appears in the receiver chamber, C0 (μmol/L) is the initial concentration of the compound in the donor chamber, and A (cm^2) represents the surface area of the cell monolayer. Data were collected from three separate experiments, and each was performed in triplicate.

Another series deals with Caco-2 cell monolayers. The description is as above. As to conditions: Caco-2 transwell, digoxin 25 μM, with addition of verapamil. Here is the method:
as §1, §2, §3

In the next series the test system is P-gp. The series is described as above. To be noted: human, Caco-2, efflux ratio, Caco-2 transwell, digoxin 25 μM (P-gp substrate validation), without verapamil. Here is the method:
as §1, §2, §3
Background: Caco-2 monolayers are a common model of the intestinal barrier.

Where [4] appears, read: pre-treatment of verapamil 10 mg/kg/day for 7 days.
Where [5] appears, read: pH 7.4, with verapamil, final concentration 0.1 µM, in the presence of verapamil (preincubation 30 min at 37 °C).

The AUC(0-t) is exposure summed from dosing to a finite time, without extrapolation to infinity. In general, Cmax refers to the peak of the concentration-time curve. In general, MRT refers to the average time that molecules of a dose stay in the body. As a reminder, the Tmax is the time from dosing to the highest level. In general, half-life refers to how long it takes for the measured level to halve. As usually defined, the Papp B→A is the apparent permeability from the basolateral to the apical side of a cell layer. Broadly, the efflux ratio is a quotient of directional permeabilities that is used to spot active efflux.

SMILES strings stand for the structures. Read-outs that look alike come from different tables or passages of the source.

In the case of `CC[C@@]1(O)C(=O)OCc2c1cc1n(c2=O)Cc2cc3cc(O)ccc3nc2-1` [HCPT, Hydroxycamptothecin], in series [1] (control (no verapamil)), the AUC(0-t) came to 660 ± 100 ng·h/mL, the Cmax was found to be 92 ± 11.3 ng/mL, the MRT was 9.61 ± 0.55 h and the Tmax worked out at 1.12 ± 0.14 h. In series [1] (control (no verapamil)), the half-life is 17.7 ± 3.6 h and the CL/F is 1060 mL/min/kg. Besides, in series [1] (setting [4]), the AUC(0-t) was found to be 1140 ± 290 ng·h/mL, the Cmax was determined as 125 ± 13.5 ng/mL, the MRT is 11.4 ± 0.78 h and the Tmax worked out at 0.89 ± 0.09 h. In series [1] (setting [4]), the half-life was 23 ± 6.71 h and the CL/F is 549 mL/min/kg. Besides, in series [2] (setting [5]), the half-life at 1 µM worked out at 0.807 ± 0.0085 h and the microsomal CLint at 1 µM came out at 28.6 ± 0.3 µL/min/mg. Moreover, in series [2] (pH 7.4, without verapamil), the half-life at 1 µM turned out to be 0.585 ± 0.00533 h and the microsomal CLint at 1 µM stood at 39.5 ± 0.42 µL/min/mg. In series [3] (Caco-2, pH 7.4), this compound registered an apparent permeability from basolateral to apical (Papp B→A) at 2 μM of 0.205 ×10⁻⁶ cm/s. Also, the efflux ratio at 2 µM in series [3] (in the presence of verapamil) was 1.21. Also, the efflux ratio at 2 µM in series [3] (without verapamil) amounted to 1.82.
Take `C[C@H]1O[C@@H](O[C@H]2[C@@H](O)C[C@H](O[C@H]3[C@@H](O)C[C@H](O[C@H]4CC[C@@]5(C)[C@H](CC[C@@H]6[C@@H]5C[C@@H](O)[C@]5(C)[C@@H](C7=CC(=O)OC7)CC[C@]65O)C4)O[C@@H]3C)O[C@@H]2C)C[C@H](O)[C@@H]1O` [digoxin]: the “efflux ratio, effect of addition of verapamil” value in the series with Caco-2 cell monolayers is “abrogated it”. The efflux ratio at 25 µM in the series on P-gp was determined as 11.
